Measurements reported in PubChem BioAssay AID256 (DTP/NCI, 2004).
Where “and” joins values, the source holds several entries; their conditions need not be identical. Identical values can stand only once. Toxic doses and inconclusive results are not listed.

Tested on: CD2F1 mice, L1210 leukemia ip, survival T/C
Test: NCI In Vivo Anticancer Drug Screen. Data for tumor model L1210 Leukemia (intraperitoneal) in CD2F1 (CDF1) mice
Settings: higher = longer survival
How it was run: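 Ratio T/C, where T is the treated-group value and C the vehicle-dosed control value, from mice implanted with a transplantable tumor.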

[1] = endpoint: mean survival time, dose: 100.0 mg/kg/injection, schedule: Q04DX003 (ip), vehicle: saline with Tween-80
[2] = endpoint: mean survival time, dose: 200.0 mg/kg/injection, schedule: Q04DX003 (ip), vehicle: saline with Tween-80
[3] = endpoint: mean survival time, dose: 400.0 mg/kg/injection, schedule: Q04DX003 (ip), vehicle: saline with Tween-80
[4] = endpoint: mean survival time, dose: 100.0 mg/kg/injection, schedule: Q01DX009 (ip), vehicle: saline with Tween-80
[5] = endpoint: mean survival time, dose: 200.0 mg/kg/injection, schedule: Q01DX009 (ip), vehicle: saline with Tween-80
[6] = endpoint: mean survival time, dose: 100.0 mg/kg/injection, schedule: Q01DX001 (ip), vehicle: saline with Tween-80
[7] = endpoint: mean survival time, dose: 200.0 mg/kg/injection, schedule: Q01DX001 (ip), vehicle: saline with Tween-80
[8] = endpoint: mean survival time, dose: 400.0 mg/kg/injection, schedule: Q01DX001 (ip), vehicle: saline with Tween-80
[9] = endpoint: mean survival time, dose: 400.0 mg/kg/injection, schedule: Q01DX009 (ip), vehicle: saline with Tween-80
[10] = endpoint: mean survival time, dose: 100.0 mg/kg/injection, schedule: Q01DX001 (ip), vehicle: Klucel (hydroxypropylcellulose) (HPC)
[11] = endpoint: mean survival time, dose: 200.0 mg/kg/injection, schedule: Q01DX001 (ip), vehicle: Klucel (hydroxypropylcellulose) (HPC)
[12] = endpoint: mean survival time, dose: 100.0 mg/kg/injection, schedule: Q01DX009 (ip), vehicle: saline
[13] = endpoint: mean survival time, dose: 200.0 mg/kg/injection, schedule: Q01DX009 (ip), vehicle: saline

With CN(C)C1C(=O)C(C(=O)NP(=O)(NCCCO)N(CCCl)CCCl)=C(O)C2(O)C(=O)C3=C(O)c4c(O)cccc4C(C)(O)C3CC12 (stereo not given) the T/C (endpoint: mean survival time, dose: 1.56 mg/kg/injection, schedule: Q01DX001 (ip), vehicle: saline with Tween-80) was 102 % of control, the T/C (endpoint: mean survival time, dose: 3.12 mg/kg/injection, schedule: Q01DX001 (ip), vehicle: saline with Tween-80) was 96 % of control and the T/C (endpoint: mean survival time, dose: 15.62 mg/kg/injection, schedule: Q01DX001 (ip), vehicle: saline with Tween-80) was 104 % of control. The T/C (endpoint: mean survival time, dose: 31.25 mg/kg/injection, schedule: Q01DX001 (ip), vehicle: saline with Tween-80) was 100 % of control, the T/C (endpoint: mean survival time, dose: 62.5 mg/kg/injection, schedule: Q01DX001 (ip), vehicle: saline with Tween-80) was 100 % of control and 106 % of control and the T/C (endpoint: mean survival time, dose: 125.0 mg/kg/injection, schedule: Q01DX001 (ip), vehicle: saline with Tween-80) was 124 % of control and 100 % of control. The T/C (endpoint: mean survival time, dose: 250.0 mg/kg/injection, schedule: Q01DX001 (ip), vehicle: saline with Tween-80) was 122 % of control and 110 % of control, the T/C (endpoint: mean survival time, dose: 500.0 mg/kg/injection, schedule: Q01DX001 (ip), vehicle: saline with Tween-80) was 156 % of control and the T/C (endpoint: median survival time, dose: 25.0 mg/kg/injection, schedule: Q01DX009 (ip), vehicle: saline with Tween-80) was 110 % of control. The T/C (endpoint: median survival time, dose: 50.0 mg/kg/injection, schedule: Q01DX009 (ip), vehicle: saline with Tween-80) was 118 % of control, the T/C (endpoint: median survival time, dose: 100.0 mg/kg/injection, schedule: Q01DX009 (ip), vehicle: saline with Tween-80) was 157 % of control and the T/C (endpoint: median survival time, dose: 200.0 mg/kg/injection, schedule: Q01DX009 (ip), vehicle: saline with Tween-80) was 201 % of control and 202 % of control. The T/C (endpoint: median survival time, dose: 400.0 mg/kg/injection, schedule: Q01DX009 (ip), vehicle: saline with Tween-80) was 116 % of control.

In the case of Cc1ccc(S(=O)(=O)N(CCC(=O)O)c2ccccc2)cc1, the T/C [1] is reported as 101 % of control, the T/C [2] is reported as 97 % of control and the T/C [3] is reported as 98 % of control.

In the case of O=c1[nH]c2ccccc2nc1CBr, the T/C (endpoint: mean survival time, dose: 3.75 mg/kg/injection, schedule: Q01DX009 (ip), vehicle: saline with Tween-80) is reported as 98 % of control, the T/C (endpoint: mean survival time, dose: 7.5 mg/kg/injection, schedule: Q01DX009 (ip), vehicle: saline with Tween-80) is reported as 110 % of control and the T/C (endpoint: mean survival time, dose: 12.5 mg/kg/injection, schedule: Q01DX009 (ip), vehicle: saline with Tween-80) is reported as 113 % of control. For the same compound, the T/C (endpoint: mean survival time, dose: 15.0 mg/kg/injection, schedule: Q01DX009 (ip), vehicle: saline with Tween-80) was 104 % of control.

In the case of COC(=O)C1CC2C=CC1CC2 (stereo not given), the T/C (endpoint: mean survival time, dose: 100.0 mg/kg/injection, schedule: Q04DX003 (ip), vehicle: saline) is reported as 97 % of control, the T/C (endpoint: mean survival time, dose: 200.0 mg/kg/injection, schedule: Q04DX003 (ip), vehicle: saline) is reported as 105 % of control and the T/C (endpoint: mean survival time, dose: 400.0 mg/kg/injection, schedule: Q04DX003 (ip), vehicle: saline) is reported as 95 % of control.

In the case of Cc1ccc(C2=NNc3n[nH]c(=S)n3N2)cc1, the T/C [4] is reported as 101 % of control, the T/C [1] is reported as 95 % of control and the T/C [5] is reported as 96 % of control. The T/C [2] was 93 % of control and the T/C [3] was 91 % of control.

For CCOC(=O)C(C(C)=O)C1=C(Cl)C(=O)c2ccccc2C1=O (stereo not given), the T/C (endpoint: mean survival time, dose: 75.0 mg/kg/injection, schedule: Q01DX001 (ip), vehicle: other) was 95 % of control, the T/C (endpoint: mean survival time, dose: 150.0 mg/kg/injection, schedule: Q01DX001 (ip), vehicle: other) was 94 % of control and the T/C (endpoint: mean survival time, dose: 300.0 mg/kg/injection, schedule: Q01DX001 (ip), vehicle: other) was 92 % of control.

[O-][n+]1ccccc1C[P+](c1ccccc1)(c1ccccc1)c1ccccc1 was tested, and the T/C (endpoint: mean survival time, dose: 12.5 mg/kg/injection, schedule: Q01DX009 (ip), vehicle: water) was 101 % of control, the T/C (endpoint: mean survival time, dose: 25.0 mg/kg/injection, schedule: Q01DX009 (ip), vehicle: water) was 100 % of control and the T/C (endpoint: mean survival time, dose: 50.0 mg/kg/injection, schedule: Q01DX009 (ip), vehicle: water) was 105 % of control. For the same compound, the T/C (endpoint: mean survival time, dose: 100.0 mg/kg/injection, schedule: Q01DX009 (ip), vehicle: water) was 96 % of control.

O=C(Nc1cccc(Cl)c1)NC1CCC(CC2CCCCC2)CC1 (stereo not given) was tested, and the T/C [1] was 95 % of control, the T/C [2] was 95 % of control and the T/C [3] was 100 % of control.

With CCN(C)N=Nc1ccc(C(N)=O)cc1 the T/C (endpoint: mean survival time, dose: 18.75 mg/kg/injection, schedule: Q01DX009 (ip), vehicle: Klucel (hydroxypropylcellulose) (HPC)) was 103 % of control, the T/C (endpoint: mean survival time, dose: 75.0 mg/kg/injection, schedule: Q01DX009 (ip), vehicle: Klucel (hydroxypropylcellulose) (HPC)) was 156 % of control and the T/C (endpoint: mean survival time, dose: 100.0 mg/kg/injection, schedule: Q01DX009 (oral), vehicle: saline with Tween-80) was 115 % of control. The T/C (endpoint: mean survival time, dose: 200.0 mg/kg/injection, schedule: Q01DX009 (oral), vehicle: saline with Tween-80) was 120 % of control.

For Cn1c(=O)[nH]c2nc(-c3ccccc3)[nH]c2c1=O, the T/C (endpoint: mean survival time, dose: 12.5 mg/kg/injection, schedule: Q01DX005 (ip), vehicle: other) was 89 % of control, the T/C (endpoint: mean survival time, dose: 25.0 mg/kg/injection, schedule: Q01DX005 (ip), vehicle: other) was 87 % of control and the T/C (endpoint: mean survival time, dose: 50.0 mg/kg/injection, schedule: Q01DX005 (ip), vehicle: other) was 86 % of control. For the same compound, the T/C (endpoint: mean survival time, dose: 100.0 mg/kg/injection, schedule: Q01DX005 (ip), vehicle: other) was 86 % of control and the T/C (endpoint: mean survival time, dose: 200.0 mg/kg/injection, schedule: Q01DX005 (ip), vehicle: other) was 87 % of control.

For O=CO.[Tl], the T/C (endpoint: mean survival time, dose: 5.0 mg/kg/injection, schedule: Q01DX001 (ip), vehicle: saline) was 104 % of control, the T/C (endpoint: mean survival time, dose: 10.0 mg/kg/injection, schedule: Q01DX001 (ip), vehicle: saline) was 98 % of control and the T/C (endpoint: mean survival time, dose: 20.0 mg/kg/injection, schedule: Q01DX001 (ip), vehicle: saline) was 95 % of control. For the same compound, the T/C (endpoint: mean survival time, dose: 40.0 mg/kg/injection, schedule: Q01DX001 (ip), vehicle: saline) was 98 % of control and the T/C (endpoint: mean survival time, dose: 80.0 mg/kg/injection, schedule: Q01DX001 (ip), vehicle: saline) was 104 % of control.

For O=[N+]([O-])c1ccc(/C=C/C=C/c2ccc(Cl)cc2Cl)cc1, the T/C [1] was 97 % of control, the T/C [2] was 104 % of control and the T/C [3] was 98 % of control.

CCOC(=O)c1nc2c(n(O)c1=N)CCC/C2=N\O was tested, and the T/C (endpoint: mean survival time, dose: 100.0 mg/kg/injection, schedule: Q04DX003 (ip), vehicle: Klucel (hydroxypropylcellulose) (HPC)) was 95 % of control, the T/C (endpoint: mean survival time, dose: 200.0 mg/kg/injection, schedule: Q04DX003 (ip), vehicle: Klucel (hydroxypropylcellulose) (HPC)) was 102 % of control and the T/C (endpoint: mean survival time, dose: 400.0 mg/kg/injection, schedule: Q04DX003 (ip), vehicle: Klucel (hydroxypropylcellulose) (HPC)) was 91 % of control.

Cc1ccc(S(=O)(=O)N(C)c2ccc(C(=O)O)c(Cl)c2Cl)cc1 was tested, and the T/C [6] was 96 % of control, the T/C [4] was 101 % of control and the T/C [7] was 93 % of control. The T/C [5] was 98 % of control, the T/C [8] was 102 % of control and the T/C [9] was 98 % of control.

With O=C(O/N=C(\CN1CCCC1)c1ccc(Cl)cc1)c1ccccc1 the T/C [10] was 95 % of control, the T/C [11] was 95 % of control and the T/C (endpoint: mean survival time, dose: 400.0 mg/kg/injection, schedule: Q01DX001 (ip), vehicle: Klucel (hydroxypropylcellulose) (HPC)) was 93 % of control.

For CCN(CC)CCN(CC)C(=O)C(O)(c1ccccc1)c1ccccc1, the T/C (endpoint: mean survival time, dose: 50.0 mg/kg/injection, schedule: Q01DX009 (ip), vehicle: saline) was 98 % of control, the T/C [12] was 95 % of control and the T/C [13] was 91 % of control.

For Nc1ccc(CC(=O)Nc2ccc(S(=O)(=O)F)cc2)cc1, the T/C (endpoint: mean survival time, dose: 100.0 mg/kg/injection, schedule: Q01DX001 (ip), vehicle: saline) was 102 % of control, the T/C (endpoint: mean survival time, dose: 200.0 mg/kg/injection, schedule: Q01DX001 (ip), vehicle: saline) was 103 % of control and the T/C (endpoint: mean survival time, dose: 400.0 mg/kg/injection, schedule: Q01DX001 (ip), vehicle: saline) was 105 % of control.

In the case of C=CS(=O)(=O)CCc1ccccc1, the T/C (endpoint: mean survival time, dose: 50.0 mg/kg/injection, schedule: Q01DX001 (ip), vehicle: Klucel (hydroxypropylcellulose) (HPC)) is reported as 101 % of control, the T/C [10] is reported as 111 % of control and the T/C [11] is reported as 108 % of control.

For C/C([O-])=N\[N+](C)(C)Cc1ccccc1, the T/C [6] was 95 % of control, the T/C [7] was 98 % of control and the T/C [8] was 102 % of control.

N#CC12C(=N)CCC1C1CC2C2C3C=CC(C3)C12 (stereo not given) was tested, and the T/C [1] was 96 % of control, the T/C [2] was 96 % of control and the T/C [3] was 95 % of control.

With O=S(=O)(F)/C=C/c1ccccc1 the T/C [1] was 88 % of control and the T/C [2] was 97 % of control.

With Nc1nc2nc3c(nc2c(=O)[nH]1)CN(c1ccc(C(=O)O)cc1)C3=O the T/C [1] was 95 % of control and the T/C [2] was 97 % of control.

For CCOC(=O)C(=CN1CCCCC1)C(=O)OCC, the T/C [4] was 92 % of control, the T/C [5] was 94 % of control and the T/C [9] was 96 % of control.

With O=C(C[n+]1cc(Br)cc2ccccc21)c1ccc(O)c(O)c1 the T/C [12] was 110 % of control, the T/C [13] was 111 % of control and the T/C (endpoint: mean survival time, dose: 400.0 mg/kg/injection, schedule: Q01DX009 (ip), vehicle: saline) was 102 % of control.

With OC(c1ccccc1)c1ccc2c(c1)CCC2 (stereo not given) the T/C [1] was 102 % of control, the T/C [2] was 98 % of control and the T/C [3] was 94 % of control.
